System: PCNA and MCM7 on chromatin, MDA-MB-468 cells
Test: Cell fractionation, chromatin-bound PCNA and MCM7
Assay type: cell-based, human
Conditions: 5, 50, or 500 nM, 24 h
Description: FIGS. 7A-7E. Transcription dependent effect on DNA replication and damage. FIG. 7A: Left: Schematic of the cell fractionation procedure. Right: MDA-MB-468 cells were treated by increasing concentrations of AOH1996 (5, 50, or 500 nM) for 24 h. Cells treated with DMSO were used as control. Whole cell extract (WCE) and protein fractions associated with actively transcribed chromatin (CB:RNA+) or with low or non-transcribed chromatin (CB:RNA−) were analyzed by Western blot using antibodies against PCNA, CAF-1, and MCM7. FIG. 7B: Synchronized cancer cells were sequentially incubated in the presence of CldU (light grey) and IdU (dark grey) before and after AOH1996 treatment, respectively. […] Middle and Right: Lengths of CldU (light grey) and IdU (dark grey) incorporated DNA segments measured for more than 30 independent DNA strands from the indicated cancer cell type were averaged and graphed ±S.D. FIG. 7C: Whole cell lysates were extracted from SK-N-AS cells homozygous of the wildtype RPB1 allele or the APIM-mutant allele. Histone H2A.X and γH2A.X was analyzed by Western blot after treatment with or without AOH1996 overnight. FIG. 7D: Histone H2A.X and γH2A.X in whole cell lysates from SK-N-AS cells were analyzed by Western blot after treatment with 500 nM AOH1996 and/or 50 μM DRB overnight. […]

In the case of COc1cccc(Oc2ccccc2NC(=O)CNC(=O)c2cccc3ccccc23)c1 [AOH1996, N-(2-((2-(3-methoxyphenoxy)phenyl)amino)-2-oxoethyl)-1-naphthamide], the “association of PCNA and MCM7 with chromatin” value is reported as “caused dissociation of PCNA and MCM7 from the actively transcribed open chromatin regions”.
